From the METLIN SMRT retention time set (Domingo-Almenara et al. 2019)

Assay: gradient 5% acetonitrile 3 min, to 50% in 2 min, to 85% in 15 min, held 3 min, 100 µL/min
Conditions: column: Zorbax Extend-C18 2.1 x 50 mm; eluents: water / acetonitrile, 0.1% formic acid
How it was run: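 Data were gathered over 3 months by HPLC coupled to a quadrupole time-of-flight mass spectrometer, operated in positive and negative ionization mode. Mixtures of ~100 pure standards ran on a Zorbax Extend-C18 column (2.1 × 50 mm, 1.8 μm) at 100 μL/min, with water and acetonitrile each containing 0.1% formic acid and dead and dwell volumes of 40 μL and 900 μL. Retention time was read from adduct peaks picked by computer and checked manually.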

RP-LC retention time [s]	Compound
609	CCN(CC)CCCC(C)Nc1cc(Cl)cc2nc3ccc(OC)cc3cc12 (stereo not given)
738	Cc1ccc(CNC(=O)N2CCc3c(c(-c4nc(C)no4)nn3C)C2)cc1
694	NC(=O)c1nnsc1-c1ccc(-c2snnc2C(N)=O)cc1
929	CCS(=O)(=O)c1ncc(Cl)c(C(=O)Nc2ccc(Oc3ccccc3)cc2)n1
1290	Clc1ccc(-c2noc(Cc3nc(-c4ccccc4)cs3)n2)cc1
617	COc1ccc(CN2CC[C@@H]3CN(S(C)(=O)=O)[C@@H]3C2)cc1C
859	COc1ccc(NC(=O)C2CCN(S(=O)(=O)c3c(C)nn(-c4ccccc4)c3C)CC2)cc1OC
968	O=C(Cn1cccc1-c1nnc(C2CCC2)o1)Nc1ccc(Cl)cc1
776	O=c1c2cc3c(cc2nc(SCc2nc(-c4ccccc4)no2)n1Cc1ccncc1)OCO3
710	CCc1ccc(CNC(=O)c2cn3c(n2)COCC3)cc1
901	CC(C)N1C(=O)c2cccnc2Sc2cc(NC(=O)c3cccc(F)c3)ccc21
1030	Cc1cccc(CN2C(=O)CN(S(=O)(=O)c3ccccc3)CC2(C)C(=O)NCCC(C)C)c1 (stereo not given)
1010	O=C(Cn1nc(N2CCCC2)c2ccccc2c1=O)Nc1ccc(F)cc1Cl
759	Cc1sc2ccn(Cc3ccc(F)cc3)c(=O)c2c1C(=O)NC1CC1
779	CC(C)NC(=O)c1nnc(-c2ccc(S(=O)(=O)N3CCCC3)cc2)o1
995	O=C(CN1C(=O)CCCc2cc(S(=O)(=O)N3CCCCC3)ccc21)Nc1ccc(Cl)cc1F
818	C=CCn1c(C)c(CC(=O)NC(C)CC)c(=O)n2nc(-c3ccccc3)nc12 (stereo not given)
1060	O=C(c1ccccc1C(F)(F)F)N1CCc2nc(-c3ccc(Cl)cc3)ncc2C1
883	NC(=O)c1cc(-c2ccccc2)sc1NC(=O)c1ccc([N+](=O)[O-])o1
609	O=C(CSc1ccc(N2CCC(C(=O)NC3CC3)CC2)nn1)NCc1ccc(F)cc1
876	CN1C(=O)c2cccnc2Sc2cc(NC(=O)c3cccc(Br)c3)ccc21
890	Cc1oc(-c2[nH]ncc2C(=O)N(C)C)cc1S(=O)(=O)Nc1ccc(F)c(F)c1
750	O=C(Nc1cccc(OCc2nnc(-c3ccccc3)o2)c1)c1cccnc1

RP-LC retention time [s]	Compound
983	COc1cccc(-c2noc(C3CCCN3C(=O)Nc3ccc(C)cc3)n2)c1 (stereo not given)
892	Cc1ccc(C)c(C(=O)NCCc2cn(CC(C)C)c3ncccc23)c1
958	Cc1cc(CNC(=O)C(=O)Nc2cc(Cl)ccc2C#N)c(C)o1
756	COC(=O)c1cccc(NC(=O)N2CCN(Cc3nc4ccc(Cl)cc4o3)CC2)c1
566	CN1C(=O)c2cccn2CC1C(=O)NCc1nc2ccccc2n1C (stereo not given)
575	Cc1ccc(C(=O)N2CCCCC2c2nncn2CC2CC2)cn1 (stereo not given)
1110	CCOc1ccc(CCNC(=O)c2cc3sc(Cl)cc3n2C)cc1OCC
750	Cc1ccc(CNC(=O)Nc2cc3c(cc2N2CCOCC2)n(C)c(=O)n3C)cc1
922	Cc1cc(N2CCN(S(=O)(=O)c3ccc(Cl)c(Cl)c3)CC2)nc(NC2CCCCC2)n1
669	NS(=O)(=O)c1ccc(CCNC(=O)Cc2cc(-c3cccs3)on2)cc1
662	Cc1oc(-c2[nH]ncc2C(=O)N2CCOCC2)cc1S(=O)(=O)Nc1ccccc1F
744	CCOc1ccc(CNS(=O)(=O)c2ccc3c(c2)CCCC(=O)N3)cc1
592	O=C(NCC(c1ccsc1)N1CCc2ccccc2C1)C(=O)NC1CCCC1 (stereo not given)
768	CCCNC(=O)c1cn(-c2ncccc2-c2nc(C(C)(C)C)no2)cn1
679	CC1CCNC2C1NC(=O)C1CCCNC1N2C1CC1 (stereo not given)
1050	Cc1ccc(C)c(-c2cc3c4nn(CC(=O)Nc5cc(F)ccc5F)c(=O)n4ccn3n2)c1
573	CC1CN(C(=O)CCC(=O)NCCCN2CCC(N3CCCCC3)CC2)c2ccccc2O1 (stereo not given)
627	O=C(NCCCn1c(-c2ccncc2)nc2cccnc21)NCc1ccc(F)cc1
774	O=C(Cc1ccccc1)N1CCN(c2cc(-c3ccccc3)[nH]n2)CC1
753	Cc1oc(C2CCN(C(=O)Nc3ccccc3F)CC2)nc1C(=O)N1CCCC1
1250	O=C(Nc1cccc(Br)c1)C1CCCN(c2ncc(-c3ccc(F)cc3)cn2)C1 (stereo not given)
728	COC1CCC12CCN(C(=O)c1sc(C)nc1C)CC2 (stereo not given)
1100	O=C(c1cccc2[nH]ccc12)N1CC(Oc2ccc(-c3nc(-c4ccccc4)no3)cc2)C1

RP-LC retention time [s]	Compound
730	COc1cccc(C(=O)Nc2cc(-c3cccnc3)no2)c1
764	COc1ccc(CNC(=O)Cn2c(C(F)(F)F)nc3cc4c(cc32)OCCO4)cc1OC
599	Cc1cccc(OCCn2c(CCO)nc3ccccc32)c1C
664	CCC(C)N(CCNC(=O)Cc1noc2ccccc12)Cc1ccco1 (stereo not given)
649	CCc1nc2cccnc2n1C1CCN(C(=O)c2ccc(C(F)(F)F)cc2)C1 (stereo not given)
882	Cc1cc(Cl)ccc1NC(=O)C1CCN(S(C)(=O)=O)c2ccccc2O1 (stereo not given)
925	COc1ccccc1-c1noc(C2CCCN2C(=O)Nc2ccc(C)c(C)c2)n1 (stereo not given)
661	CCn1c(CCNC(=O)c2cc(Cl)ccc2F)nc2cccnc21
729	O=C(CCSc1ccc(F)cc1)Nc1nnc(-c2ccco2)o1
817	Cn1ncn2cc(S(=O)(=O)NCc3ccc(Cl)cc3)cc2c1=O
1240	Cc1ccc(CNC(=O)Nc2ccc(-c3nc(-c4ccc(C)cc4C)co3)cc2)cc1
668	Cn1nc(C(=O)Nc2ccccc2)c2c1CCN(C(=O)CCC(=O)N1CCOCC1)C2
1130	O=S(=O)(c1ccc(Cl)c(-c2nnc(-c3ccccc3)o2)c1)N1CCCCC1
821	Cc1ccc(N2CC(C(=O)Nc3cc(-c4ccco4)no3)CC2=O)cc1 (stereo not given)
605	COC(=O)C(C)NC(=O)N1CCN(c2nc3ccccc3n3cccc23)CC1 (stereo not given)
814	O=C1CCCN1Cc1noc(-c2cccc(Cl)c2)n1
853	O=C(c1ccsc1)N(CCc1cccs1)C1CC1
734	O=C(Nc1nc(-c2ccccc2)cs1)c1ccncc1
1010	O=C(Nc1nnc(SCc2cccc(F)c2)s1)C1CCCCC1
545	CC(C)c1nnc(C2CCN(C(=O)c3ccc4nc[nH]c4c3)CC2)o1
728	Cc1cccc(C)c1OCC(N)C(C)C (stereo not given)
767	CCOc1ccc(NC(=O)c2cnc(N3CCN(c4ccc(OC)cc4)CC3)nc2N)cc1
734	C#CCOCC1CCN(C(=O)c2cc(-c3cccs3)[nH]n2)CC1

RP-LC retention time [s]	Compound
733	CC1(C(=O)NCc2ccc(Br)cc2)Oc2cccnc2NC1=O (stereo not given)
953	COC(=O)c1ccc2c(=O)n(Cc3ccccc3)c(N3CCOCC3)nc2c1
690	COCc1nc2nccc(-c3ccc(OC)cc3)n2n1
614	Cc1cccc2c(C(=O)NC3CC3)cc(=O)[nH]c12
790	Cc1ccc(CNC(=O)C2(C)CN(S(C)(=O)=O)CC(=O)N2c2ccc(F)cc2C)cc1 (stereo not given)
879	CCn1cc(-c2nc(CC(=O)Nc3ccc(C#N)cc3)cs2)c2cccnc21
986	Cc1ccccc1-c1noc(Cn2cnc3c(oc4ccccc43)c2=O)n1
812	COC(=O)c1ccccc1S(=O)(=O)N1CCN(Cc2nnnn2-c2ccccc2)CC1
849	Cc1ccc(C)c(C(=O)N2CCCC(COc3ccc(C(=O)NC4CC4)cc3)C2)c1 (stereo not given)
933	Cc1c(-c2ccnc(N3CCCC3)n2)cnc2nc(-c3ccccc3)nn12
597	CN(C)C(=O)c1ccc2oc(CN3CCN(C(=O)NC(C)(C)C)CC3)nc2c1
760	O=C(COc1ccccc1)Nc1c(C(=O)N2CCN(c3ccccn3)CC2)oc2ccccc12
975	COC(=O)c1ccc2c(=O)n(Cc3ccc(F)cc3)c(N3CCOCC3)nc2c1
653	CCOc1ccc(NC(=O)N(Cc2cccs2)C2CCN(CC)CC2)cc1
661	Cc1cc(C)cc(NC(=O)Nc2ccc3nnc(C)n3c2)c1
984	Cc1ccc(-c2nnc(-c3cccc(S(=O)(=O)NC(C)C)c3)o2)cc1
640	CCOC(=O)c1ccccc1NC(=O)Cn1cnc2nc(N3CCCC(C(=O)NC)C3)sc2c1=O (stereo not given)
631	COc1ccc(C2C(C(=O)NCC3CCCO3)CCC(=O)N2c2cc(OC)c(OC)c(OC)c2)cc1 (stereo not given)
811	COc1ccc(C)cc1NC(=O)N1CCC(CC(=O)N2CCCCC2)CC1
617	CN(C)C(=O)c1n[nH]c2c1CN(C(=O)c1cc(F)ccc1F)CC2
884	Cc1noc(C2(NC(=O)Cc3ccccc3C)CCCCC2)n1
